From patent publication US7829665B2 (priority 2005, dated 2010)
Like-named read-outs stand apart in the source and are kept apart here.

Columns and labels:
[1] = biological target: T1, full-length NS3/NS4A-2 (HCV NS3 protease) (Hepatitis C virus genotype 1a, UniProt P27958); assay: NS3-NS4 protease assay / NS3 inhibition assay (RETS1 substrate, fluorescence kinetic read); format: biochemical
T1 construct: Recombinant E. coli or Baculovirus full-length NS3 was diluted to 3.33 μM with assay buffer; made in house; host or cells: E. coli or baculovirus (BV) expression system
How it was run: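 Full-length NS3 from E. coli (2 nM in assay) or baculovirus (3 nM) was precomplexed with excess NS4A-2 peptide, then preincubated 10 min at room temperature with serially diluted compounds starting at 50 microM. Reaction was started with RETS1 substrate at 8 μM before addition and read kinetically for 30 min (ex 335/em 495 nm). Four-parameter IC50s were converted to Ki by Cheng-Prusoff using Km 2.03 μM (E. coli) or 1.74 μM (BV).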

[2] = system: HCV sub-genomic replicon in GS4.3 cells (HuH-7 hepatoma cells); assay: Quantitation by ELISA of Neomycin phosphotransferase II (NPTII) in the HCV sub-genomic replicon, GS4.3; format: cell-based, hepatitis C virus; conditions: Hepatitis C virus
Protocol: The HCV sub-genomic replicon (1377/NS3-3′, accession No. AJ242652), stably maintained in HuH-7 hepatoma cells, was created by Lohmann et al. Science 285: 110-113 (1999). The replicon-containing cell culture, designated GS4.3, was obtained from Dr. Christoph Seeger of the Institute for Cancer Research, Fox Chase Cancer Center, Philadelphia, Pa.
GS4.3 cells were maintained at 37° C., 5% CO2, in DMEM (Gibco 11965-092) supplemented with L-glutamine 200 mM (100×) (Gibco25030-081), non-essential amino acids (NEAA) (Biowhittaker 13-114E), heat-inactivated (HI) Fetal Bovine Serum (FBS) (Hyclone SH3007.03) and 750 μg/ml geneticin (G418) (Gibco 10131-035). Cells were sub-divided 1:3 or 4 every 2-3 days.
24 h prior to the assay, GS4.3 cells were collected, counted, and plated in 96-well plates (Costar 3585) at 7500 cells/well in 100 μl standard maintenance medium (above) and incubated in the conditions above. To initiate the assay, culture medium was removed, cells were washed once with PBS (Gibco 10010-023) and 90 μl Assay Medium (DMEM, L-glutamine, NEAA, 10% HI FBS, no G418) was added. Inhibitors were made as a 10× stock in Assay Medium, (3-fold dilutions from 10 μM to 56 pM final concentration, final DMSO concentration 1%), 10 μl were added to duplicate wells, plates were rocked to mix, and incubated as above for 72 h.
An NPTII Elisa kit was obtained from AGDIA, Inc. (Compound direct ELISA test system for Neomycin Phosphotransferase II, PSP 73000/4800). Manufacturer's instructions were followed, with some modifications. 10×PEB-1 lysis buffer was made up to include 500 μM PMSF (Sigma P7626, 50 mM stock in isopropanol). After 72 h incubation, cells were washed once with PBS and 150 μl PEB-1 with PMSF was added per well. Plates were agitated vigorously for 15 minutes, room temperature, then frozen at −70° C. Plates were thawed, lysates were mixed thoroughly, and 100 μl were applied to an NPTII Elisa plate. A standard curve was made. Lysate from DMSO-treated control cells was pooled, serially diluted with PEB-1 with PMSF, and applied to duplicate wells of the ELISA plate, in a range of initial lysate amount of 150 ul-2.5 ul. In addition, 100 μl buffer alone was applied in duplicate as a blank. Plates were sealed and gently agitated at room temperature for 2 h. Following capture incubation, the plates were washed 5×300 μl with PBS-T (0.5% Tween-20, PBS-T was supplied in the ELISA kit). For detection, a 1× dilution of enzyme conjugate diluent MRS-2 (5×) was made in PBS-T, into which 1:100 dilutions of enzyme conjugates A and B were added, as per instructions. Plates were resealed, and incubated with agitation, covered, room temperature, for 2 h. The washing was then repeated and 100 μl of room temperature TMB substrate was added. After approximately 30 minutes incubation (room temperature, agitation, covered), the reaction was stopped with 50 μl 3M sulfuric acid. Plates were read at 450 nm on a Molecular Devices Versamax plate reader.
Inhibitor effect was expressed as a percentage of DMSO-treated control signal, and inhibition curves were calculated using a 4-parameter equation: y=A+((B−A)/(1+((C/x)^D))), where C is half-maximal activity or EC50.

[3] = recombinant E. coli or Baculovirus full-length NS3 with NS4A-2, read-out: NS3-NS4 IC50
[4] = Huh-7, GS4.3 cells, 72 h incubation, NPTII ELISA, read-out: Replicon EC50

T1 sequence (P27958 1027-1657): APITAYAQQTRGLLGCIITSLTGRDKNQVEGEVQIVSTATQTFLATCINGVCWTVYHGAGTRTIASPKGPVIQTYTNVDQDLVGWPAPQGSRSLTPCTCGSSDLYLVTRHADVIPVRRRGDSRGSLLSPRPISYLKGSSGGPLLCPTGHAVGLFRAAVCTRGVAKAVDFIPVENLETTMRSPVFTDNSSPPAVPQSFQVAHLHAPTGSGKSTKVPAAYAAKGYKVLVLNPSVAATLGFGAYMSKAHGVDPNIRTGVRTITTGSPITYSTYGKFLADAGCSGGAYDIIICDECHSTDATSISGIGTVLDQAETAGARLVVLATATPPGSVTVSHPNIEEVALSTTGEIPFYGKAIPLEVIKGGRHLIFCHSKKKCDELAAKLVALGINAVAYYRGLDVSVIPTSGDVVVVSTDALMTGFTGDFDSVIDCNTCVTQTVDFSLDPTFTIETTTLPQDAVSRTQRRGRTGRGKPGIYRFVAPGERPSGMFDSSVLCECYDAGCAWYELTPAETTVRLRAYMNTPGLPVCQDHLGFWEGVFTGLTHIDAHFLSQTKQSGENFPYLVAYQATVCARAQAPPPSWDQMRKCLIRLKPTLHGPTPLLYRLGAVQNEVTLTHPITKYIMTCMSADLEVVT

Compound	IC50 [1, 3] [nM]	EC50 [2, 4] [nM]	IC50 [1] [nM]	EC50 ([2]; Huh-7, Table 26, read-out: EC50) [nM]	EC50 ([2]; Huh-7, 72 h, read-out: Replicon EC50) [nM]
COCC1(S(=O)(=O)NC(=O)[C@@]23C[C@H]2/C=C\CCCCC[C@H](NC(=O)OC2CCCC2)C(=O)N2C[C@H](OC(=O)N4Cc5cccc(F)c5C4)C[C@H]2C(=O)N3)CC1 [Compound 171]	< 100	< 100	–	–	–
CC(C)(C)OC(=O)N[C@H]1CCCCC/C=C\[C@@H]2C[C@@]2(C(=O)NS(=O)(=O)N2CCC(F)(F)C2)NC(=O)[C@@H]2C[C@@H](OC(=O)N3Cc4cccc(Cl)c4C3)CN2C1=O [Compound 211]	< 100	< 100	–	–	–
COc1cc2c(cc1OC)CN(C(=O)O[C@@H]1C[C@H]3C(=O)N[C@]4(C(=O)NS(=O)(=O)N5CCOCC5)C[C@H]4/C=C\CCCCC[C@H](NC(=O)OC(C)(C)C)C(=O)N3C1)CC2 [Compound 208]	< 100	< 10000	–	–	–
CC(C)(C)OC(=O)N[C@H]1CCC(F)(F)CC/C=C\[C@@H]2C[C@@]2(C(=O)NS(=O)(=O)C2CC2)NC(=O)[C@@H]2C[C@@H](OC(=O)N3Cc4cccc(F)c4C3)CN2C1=O [Compound 1002]	< 100	< 100	–	–	–
O=C(N[C@H]1CCCCC/C=C\[C@@H]2C[C@@]2(C(=O)NS(=O)(=O)N2CCC(F)(F)C2)NC(=O)[C@@H]2C[C@@H](OC(=O)N3Cc4cccc(F)c4C3)CN2C1=O)OC1CCCC1 [Compound 225]	< 100	< 100	–	–	–
CC(C)(C)OC(=O)N[C@H]1CCC(F)(F)CC/C=C\[C@@H]2C[C@@]2(C(=O)O)NC(=O)[C@@H]2C[C@@H](OC(=O)N3Cc4ccccc4C3)CN2C1=O [Compound 1007]	< 100	< 10000	–	–	–
CCCNC(=O)[C@@]12C[C@H]1/C=C\CCCCC[C@H](N)C(=O)N1C[C@H](OC(=O)N3Cc4cccc(F)c4C3)C[C@H]1C(=O)N2 [Compound 621]	> 10000	> 10000	–	–	–
CN(C)S(=O)(=O)NC(=O)[C@@]12C[C@H]1/C=C\CCCCC[C@H](NC(=O)OC(C)(C)C)C(=O)N1C[C@H](OC(=O)N3Cc4cccc(Cl)c4C3)C[C@H]1C(=O)N2 [Compound 114]	< 100	< 100	–	–	–
O=C(N[C@H]1CCCCC/C=C\[C@@H]2C[C@@]2(C(=O)NS(=O)(=O)c2cccs2)NC(=O)[C@@H]2C[C@@H](OC(=O)N3CCc4ccccc4C3)CN2C1=O)OC1CCCC1 [Compound 190]	< 100	< 100	–	–	–
CC(C)(C)OC(=O)N[C@H]1CCCOC/C=C\[C@@H]2C[C@@]2(C(=O)NCC2CC2)NC(=O)[C@@H]2C[C@@H](OC(=O)N3Cc4cccc(F)c4C3)CN2C1=O [Compound 1019]	< 100	< 1000	–	–	–
O=C1N[C@]2(C(=O)NS(=O)(=O)C3CC3)C[C@H]2/C=C\CCCCC[C@H](Nc2nc(-c3ccccc3)cs2)C(=O)N2C[C@H](OC(=O)N3Cc4cccc(F)c4C3)C[C@@H]12 [Compound 927, (2R,6S,13aS,14aR,16aS,Z)-14a-(cyclopropylsulfonylcarbamoyl)-5,16-dioxo-6-(4-phenylthiazol-2-ylamino)-1,2,3,5,6,7,8,9,10,11,13a,14,14a,15,16,16a-hexadecahydrocyclopropa[e]pyrrolo[1,2-a][1,4]diazacyclopentadecin-2-yl 4-fluoroisoindoline-2-carboxylate]	< 100	< 100	–	–	–
Cc1sc(N[C@H]2CCCCC/C=C\[C@@H]3C[C@@]3(C(=O)NS(=O)(=O)C3CC3)NC(=O)[C@@H]3C[C@@H](OC(=O)N4Cc5cccc(F)c5C4)CN3C2=O)nc1-c1ccccc1 [Compound 928]	< 100	< 100	–	–	–
CC(C)(C)OC(=O)N[C@H]1CCCCC/C=C\[C@@H]2C[C@@]2(C(=O)Nc2n[nH]c(C3CC3)n2)NC(=O)[C@@H]2C[C@@H](OC(=O)N3Cc4cccc(F)c4C3)CN2C1=O [Compound 635]	< 100	< 1000	–	–	–
CCN(C)S(=O)(=O)NC(=O)[C@@]12C[C@H]1/C=C\CCCCC[C@H](NC(=O)OC(C)(C)C)C(=O)N1C[C@H](OC(=O)N3Cc4ccccc4C3)C[C@H]1C(=O)N2 [Compound 200]	< 100	< 100	–	–	–
CC(C)(C)OC(=O)N[C@H]1CCCCC/C=C\[C@@H]2C[C@@]2(C(=O)NS(=O)(=O)C2CC2)NC(=O)[C@@H]2C[C@@H](OC(=O)N3Cc4ccc(C(F)(F)F)cc4C3)CN2C1=O [Compound 112]	< 100	< 100	–	–	–
CC(C)(C)OC(=O)N[C@H]1CCCCC/C=C\[C@@H]2C[C@@]2(C(=O)NS(=O)(=O)c2ccc(Cl)s2)NC(=O)[C@@H]2C[C@@H](OC(=O)N3Cc4cccc(Cl)c4C3)CN2C1=O [Compound 164]	< 100	< 100	–	–	–
COCC1(S(=O)(=O)NC(=O)[C@@]23C[C@H]2/C=C\CCCCC[C@H](NC(=O)OC(C)(C)C)C(=O)N2C[C@H](OC(=O)N4Cc5ccccc5C4)C[C@H]2C(=O)N3)CC1 [Compound 103]	< 100	< 100	–	–	–
O=C1N[C@]2(C(=O)NS(=O)(=O)C3CC3)C[C@H]2/C=C\CCCCC[C@H](NC(=O)N2CCCC2)C(=O)N2C[C@H](OC(=O)N3Cc4cccc(F)c4C3)C[C@@H]12 [Compound 243]	< 100	< 100	–	–	–
O=C1N[C@]2(C(=O)NCC3CC3)C[C@H]2/C=C\CCCCC[C@H](NC2CCC2)C(=O)N2C[C@H](OC(=O)N3Cc4cccc(F)c4C3)C[C@@H]12 [Compound 624]	< 10000	< 1000	–	–	–
O=C(N[C@H]1CCCCC/C=C\[C@@H]2C[C@@]2(C(=O)O)NC(=O)C2C[C@@H](OC(=O)N3Cc4cccc(F)c4C3)CN2C1=O)c1cnccn1 (some centres unmarked) [Compound 181]	< 1000	< 10000	–	–	–
N[C@H]1CCCCC/C=C\[C@@H]2C[C@@]2(C(=O)NS(=O)(=O)c2ccc(Cl)s2)NC(=O)[C@@H]2C[C@@H](OC(=O)N3Cc4cccc(Cl)c4C3)CN2C1=O [Compound 168]	–	< 10000	< 100	–	–
O=C(CCC(F)(F)F)N[C@H]1CCCCC/C=C\[C@@H]2C[C@@]2(C(=O)NS(=O)(=O)C2CC2)NC(=O)[C@@H]2CCCN2C1=O [Compound 2139]	–	–	–	< 1000	–
CC(C)(C)OC(=O)NC1CCCCC/C=C\[C@H]2C[C@@]2(C(=O)NS(=O)(=O)NCC(F)(F)F)NC(=O)C2CC(OC(=O)N3Cc4cccc(Cl)c4C3)CN2C1=O (single isomer, unassigned) [Compound 226]	–	< 100	–	–	–
O=C(N[C@H]1CCCCC/C=C\[C@@H]2C[C@@]2(C(=O)NS(=O)(=O)C2CC2)NC(=O)[C@@H]2C[C@@H](OC(=O)N3Cc4cccc(F)c4C3)CN2C1=O)C(O)C(F)(F)F (single isomer, unassigned) [Compound 247]	–	< 100	–	–	–
C[C@@H](NC(=O)O[C@@H]1C[C@H]2C(=O)N[C@]3(C(=O)NS(=O)(=O)C4CC4)C[C@H]3/C=C\CCCCC[C@H](NC(=O)OC(C)(C)C)C(=O)N2C1)c1ccc(F)cn1 [Compound 150]	–	> 10000	–	–	–
CC(C)(C)OC(=O)N[C@H]1CCCCC/C=C\[C@@H]2C[C@@]2(C(=O)NS(=O)(=O)C2(C)CC2)NC(=O)[C@@H]2C[C@@H](OC(=O)N3Cc4ccccc4C3)CN2C1=O [Compound 100, (1S,4R,6S,14S,18R)-1,3-Dihydro-isoindole-2-carboxylic acid 14-tert-butoxycarbonylamino-4-(1-methylcyclopropane-1-sulfonyl)aminocarbonyl-2,15-dioxo-3,16-diaza-tricyclo[14.3.0.0^4,6]nonadec-7-en-18-yl ester]	–	–	–	–	< 100
